In patent US20080199423A1, “Methods of Using Apo2l Receptor Agonists and Ink Cell Activators” (GENENTECH, INC., priority 2004, published 2008):

Assays:
[1] = system: cell surface Apo2L/TRAIL on NK cells; assay: Flow cytometry of cell surface Apo2L/TRAIL on purified NK cells; format: cell-based, human; conditions: 5C2-Alexa 488 staining
Protocol: Cell surface Apo2L/TRAIL on purified NK cells treated with poly(I:C), R-848 or hIL-2 (30 ng/ml, BD Biosciences) was also analyzed by cytometry. Isotype control (IgG2a, Sigma) and anti-Apo2L/TRAIL antibody (5C2) were labeled with Alexa 488 (Molecular Probes). 5×10^5 cells were incubated with 2 μg of human IgG to block FcRs and 1 μg of the directly labeled mAbs at 4° C. for 45 minutes, followed by 2 washes. Stained cells were analyzed using a FACScan cytometer (Becton Dickenson) and Cellquest software.

[2] = system: 4T1 cells; assay: 51Cr release cytotoxicity assay, purified human NK cells on 4T1 target cells; format: cell-based, mouse; conditions: NK cells treated for 18 hours with agent; 4 hour incubation; E:T 1:1 to 50:1
Protocol: 4T1 cells (a metastatic mammary carcinoma cell line derived from BALE/C mice, obtained from Fred Miller, Karmanos Cancer Institute) were assayed in an in vitro cytotoxicity assay to examine tumoricical effects of various Toll receptor (“TLR”) activators and NK cells. The 4T1 target cells were cultured in IDMEM medium supplemented with 10% FCS, glutamine and penicillin/streptomycin, labeled with 100 mCi ^51Cr for 1 hour at 37° C. and then washed three times with culture medium.
To prepare purified effector NK cells for the assay, PBMCs from healthy human donors were isolated by standard density-gradient centrifugation over Ficoll-Paque Plus (Pharmacia). CD3 positive cells were first depleted using anti-CD3 microbeads (obtained from Miltenyi), and then the NK cells were purified using anti-CD56 microbeads (Miltenyi). The purity of the NK cell preparation was 95% or higher as determined by staining with mouse anti-human CD56 PE and mouse anti-human CD14 PE conjugates (BD Biosciences). The isolated cells were cultured in RPMI 1640 supplemented with heat inactivated 10% FCS, penicillin, streptomycin, 10 mM sodium pyruvate, 2 mM L-glutamine and 10 mM HEPES.
10^4 of the labeled 4T1 cells were added to varying numbers of purified NK cells (either untreated control NK cells or NK cells treated with specific agent) at ratios of 1:1, 3:1, 6:1, 12:1, 25:1, and 50:1, respectively. NK cells were treated for 18 hours with one of the following TLR activating agents: sBLP (1 μg/ml, Bachem); poly(I:C) (50 μg/ml, Pharmacia); E. coli 055:B5 LPS (phenol extracted, 1 μg/ml, Sigma); Flagellin (1 μg/ml, A. Gewirtz, Emory Univerity); R-848 (5 μg/ml, Invivogen); CpG oligonucleotides (2006 and 2216, 5 μM, Invivogen). The cytotoxicity assays were performed in round bottom 96 well plates, and the samples were incubated in duplicate wells for 4 hours at 37° C., 5% CO2. RPMI 1640 supplemented with heat inactivated 10% FCS, penicillin, streptomycin, 10 mM sodium pyruvate, 2 mM L-glutamine and 10 mM HEPES was used during incubation.
After the 4 hour incubation, supernatants were aspirated from the wells and examined for ^51Cr release using a Gamma counter. The percent specific lysis was calculated as 100× (experimental cpm-spontaneous cpm)/(total cpm-spontaneous cpm). The data are representative of at least three experiments and <5% SD was observed.
A cytotoxicity assay was performed as described in Example 1, except for the following modifications. Purified NK cells were treated with poly(I:C) or R-848 overnight and incubated with 4T1 cells. The role of TNF-alpha, FasL, and Apo2L/TRAIL was evaluated by preincubation of the NK cells with neutralizing antibodies to the respective ligands. The following neutralizing antibodies were added at final concentration of 2 μg/ml: anti-Fas-L (mIgG2b, R&D Systems), anti-TNF-alpha (mIgG1, Genentech), and anti-Apo2L/TRAIL (5C2, mIgG2a, ATCC HB-12258 and 1D1, mIgG2b; ATCC HB-12257). Isotype control antibodies were obtained from BD Biosciences.
For the cytotoxicity assays, target cells were labeled with 100 mCi ^51Cr for 1 hour at 37° C. and then washed 3 times before use. 10^4 target cells were added to varying numbers of effector cells at the indicated ratios and incubated in duplicate wells for 4 hours at 37° C., 5% CO2, and supernatants were used to determine ^51Cr released using a Gamma counter. The cytotoxicity assays were performed in round bottom 96 well plates and the percent specific lysis was calculated as 100× (experimental cpm-spontaneous cpm)/(total cpm-spontaneous cpm). The role of Apo2L/TRAIL expressed by NK cells in the lysis of target cells was evaluated using anti-Apo2L/TRAIL mAbs (5C2 and 1D1, Genentech, Inc.). Isotype control antibodies were obtained from BD Biosciences.

[3] = system: Apo2L/TRAIL protein in NK cells; assay: Quantitative ELISA of Apo2L/TRAIL protein in NK cell lysates or supernatants; format: cell-based, human; conditions: stimulated NK cells
Protocol: Resting and poly(I:C) stimulated NK cell lysates or their culture supernatants were assessed for the presence of Apo2L/TRAIL protein by quantitative ELISA (kit, BD Biosciences). To confirm Apo2L/TRAIL protein expression was increased following activation of NK cells with poly(I:C) or R848, an ELISA was performed.

[4] = system: Apo2L/TRAIL mRNA in NK cells; assay: RT-QPCR of Apo2L/TRAIL message in treated NK cells; format: cell-based, human; conditions: NK cells treated 18 hours; normalized to RPL19
Protocol: In another experiment, the purified NK cells were treated for 18 hours in RPMI 1640 supplemented with heat inactivated 10% FCS, penicillin, streptomycin, 10 mM sodium pyruvate, 2 mM L-glutamine and 10 mM HEPES with poly(I:C) (50 μg/ml), R-848 (5 μg/ml) or hIFN-alpha (1000 U/ml, Sigma) in the presence or absence of 10 μg/ml cycloheximide and Apo2L/TRAIL was measured in the extracted RNA. RT-PCR was performed and the amount of cDNA was quantitated by RT-QPCR analysis, normalized to RPL19, and fold induction over control is shown in FIG. 2A. Primers were designed as per instructions (Primer Express) and sequences are: hRPL19-probe: […] (SEQ ID NO:7); hRPL19-For: […] (SEQ ID NO:8); hRPL19-Rev: […] (SEQ ID NO:9); hApo2L-probe: […] (SEQ ID NO:10); hApo2L-For: […] (SEQ ID NO:11); hApo2L-Rev: […] (SEQ ID NO:12). cDNA was analyzed for expression of RPL19 and Apo2L/TRAIL by RT-QPCR (Applied Biosystems) as described in Zarember et al., J. Immunol., 168(2):554-61 (2002). Fold increase values are expressed as arbitrary units, relative to the calibrator gene RPL19.

**Q.** Which results are given for poly(I:C)?
**A.** Cell surface expression of Apo2L/TRAIL on NK cells [1]: detectable cell surface expression; Lysis of 4T1 cells by NK cells treated with TLR activating agent [2]: efficiently lysed; Apo2L/TRAIL protein in NK cell lysates [3]: present in a cell-associated form; Apo2L/TRAIL released into supernatants [3]: No significant levels; Increase of Apo2L/TRAIL mRNA over control [4]: 26 fold
